# Source: patent publication US20260042763A1, “PE[…] POSITIVE […] THE TREATMENT OF IRRITABLE BOWEL SYNDROME AND OTHER AILMENTS OF THE PERIPHERAL NERVOUS SYSTEM” (The Johns Hopkins University, priority 2022, published 2026)
# Read-outs that look alike come from different tables or passages of the source.
# Molecular target: T1, human isoforms of GABAA (α3ß2γ2) receptors (Homo sapiens, UniProt P18507+P34903)
# T1 construct: expressed in transfected cells
# Assay: Potentiation of GABA-evoked currents at GABAA (α3β2γ2) receptors, automated patch-clamp (QPatch), Example B1
# Type: cell-based
# Conditions: for Emax: Emax of potentiation, read-out: Max %
# Procedure: The ability of compounds exemplified above to potentiate the effect of GABA on GABAA receptors (α3β2γ2) was determined using one or more of the methods described below.
# Ltk cells stably expressing the human isoforms of GABAA (α3ß2γ2) receptors were used together with submaximal GABA concentrations to investigate the modulatory effects of the test items. Cells were incubated at 37° C. in a humidified atmosphere with 5% CO2 (rel. humidity about 95%). The cells were continuously maintained in and passaged in sterile culture flasks containing a 1:1 mixture of Dulbecco's modified eagle medium and nutrient mixture D-MEM/F-12 (1×, liquid, with L-Glutamine), supplemented with 10% fetal bovine serum and 1.0% Penicillin/Streptomycin solution. The complete medium as indicated above was supplemented with neomycin. In general, cells were passaged at a confluence of about 80 to 90%. For electrophysiological measurements cells were harvested at a confluence of about 80 to 90% from sterile culture flasks containing culture complete medium. Cells were transferred as suspension in PBS to the QPatch 16X or QPatch HTX system to the centrifuge/washer directly. Expression of GABA receptor was induced by adding Dexamethasone to the cells for 24 to 48 h before experimentation.
# Modulatory effects of the compounds of this disclosure were investigated using cells stably transfected with GABA-activated channels of the GABAA (α3ß2γ2) subtype together with submaximal GABA concentrations. Expression of GABA receptor were induced by adding Dexamethasone to the cells for 24 to 48 h before experimentation. In general, cells were passaged at a confluence of about 80 to 90%. For electrophysiological measurements cells were harvested at a confluence of about 80 to 90% from sterile culture flasks containing culture complete medium. Cells were transferred as suspension in PBS to the QPatch 16X or QPatch HTX system to the centrifuge/washer directly. Cells were incubated at 37° C. in a humidified atmosphere with 5% CO2 (rel. humidity about 95%). The cells were continuously maintained in and passaged in sterile culture flasks containing a 1:1 mixture of Dulbecco's modified eagle medium and nutrient mixture D-MEM/F-12 (1×, liquid, with L-Glutamine), supplemented with 10% foetal bovine serum and 1.0% Penicillin/Streptomycin solution and neomycin. The 1× bath solution was made at least every 5 days out of a sterile 10× bath solution, which had been prepared prior to the experimental start of the present study and stored at 1° C. to 9° C. The final bath solution included Sodium Chloride 137 mM, Potassium Chloride 4 mM, Calcium Chloride 1.8 mM, Magnesium Chloride 1 mM, HEPES 10 mM, D-Glucose 10 mM, pH (NaOH) 7.4. The 1× intracellular solution was thawed every day and includes Potassium Chloride 130 mM, Magnesium Chloride 1 mM, Mg-ATP 5 mM, HEPES 10 mM, EGTA 5 Mm, pH (KOH) 7.2. Automated patch-clamping: Cells were transferred as suspension in serum-free medium to the QPatch HTX system and kept in the cell storage tank during experiments. All solutions applied to cells including the intracellular solution were maintained at room temperature (19° C. to 30° C.). After formation of a Gigaohm seal between the patch electrodes and transfected individual Ltk cells were ruptured to assure electrical access to the cell interior (whole-cell patch-configuration). Inward currents were measured upon application of 2.0 μM GABA to patch-clamped cells for 4 s. During the entire experiment the cells were voltage-clamped at a holding potential of −80 mV. For the analysis of test items, GABAA receptors were stimulated by 2.0 μM GABA and test item combinations described below. Thirty-second prewash steps with test items was performed in between two agonist applications. […]
# [1] = Ltk cells expressing GABAA α3β2γ2, 2.0 μM GABA, whole-cell, holding potential −80 mV
# T1 sequence (P34903 29-492): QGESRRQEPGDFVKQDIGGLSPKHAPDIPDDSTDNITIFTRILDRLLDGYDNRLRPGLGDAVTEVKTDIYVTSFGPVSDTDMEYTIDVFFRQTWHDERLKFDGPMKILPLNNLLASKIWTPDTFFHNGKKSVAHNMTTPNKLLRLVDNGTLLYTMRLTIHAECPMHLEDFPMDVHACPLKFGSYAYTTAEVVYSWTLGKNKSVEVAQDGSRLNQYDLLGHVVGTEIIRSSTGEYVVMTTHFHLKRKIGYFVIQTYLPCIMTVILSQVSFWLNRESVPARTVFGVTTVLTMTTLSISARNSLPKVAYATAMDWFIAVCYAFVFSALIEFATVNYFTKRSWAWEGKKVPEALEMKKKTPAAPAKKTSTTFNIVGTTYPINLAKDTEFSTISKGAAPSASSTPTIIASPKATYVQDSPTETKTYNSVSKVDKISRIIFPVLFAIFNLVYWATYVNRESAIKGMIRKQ
# T1 sequence (P47870 25-512 partner limits assumed): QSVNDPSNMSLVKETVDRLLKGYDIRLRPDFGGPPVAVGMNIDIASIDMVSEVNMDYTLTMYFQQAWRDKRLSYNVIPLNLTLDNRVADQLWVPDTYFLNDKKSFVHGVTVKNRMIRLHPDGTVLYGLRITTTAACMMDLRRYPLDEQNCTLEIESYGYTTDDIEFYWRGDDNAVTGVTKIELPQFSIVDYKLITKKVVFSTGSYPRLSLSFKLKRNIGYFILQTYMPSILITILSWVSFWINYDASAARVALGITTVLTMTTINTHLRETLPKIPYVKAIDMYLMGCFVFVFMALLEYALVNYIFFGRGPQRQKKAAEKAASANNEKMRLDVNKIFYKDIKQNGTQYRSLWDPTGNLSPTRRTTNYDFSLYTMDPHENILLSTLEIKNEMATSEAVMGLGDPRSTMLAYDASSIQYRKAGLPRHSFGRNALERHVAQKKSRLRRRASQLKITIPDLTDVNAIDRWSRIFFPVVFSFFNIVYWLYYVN
# T1 sequence (P18507 40-475): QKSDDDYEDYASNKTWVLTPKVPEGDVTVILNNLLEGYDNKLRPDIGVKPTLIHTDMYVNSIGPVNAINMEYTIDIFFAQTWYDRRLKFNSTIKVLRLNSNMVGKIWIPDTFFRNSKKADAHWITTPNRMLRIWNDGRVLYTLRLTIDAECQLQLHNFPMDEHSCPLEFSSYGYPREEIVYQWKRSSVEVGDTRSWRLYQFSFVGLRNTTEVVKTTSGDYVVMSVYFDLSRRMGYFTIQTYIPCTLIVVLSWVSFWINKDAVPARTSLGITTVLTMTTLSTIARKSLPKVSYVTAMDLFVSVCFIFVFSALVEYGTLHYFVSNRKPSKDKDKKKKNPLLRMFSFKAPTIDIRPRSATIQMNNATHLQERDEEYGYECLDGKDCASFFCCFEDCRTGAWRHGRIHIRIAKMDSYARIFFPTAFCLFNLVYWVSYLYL
smiles,measurement,setting,value
"O=C(O)c1nc2n(c1CN1CCOCC1)-c1ccc(Cl)cc1C(c1ccccc1F)=NC2 [Compound 245, 8-chloro-6-(2-fluorophenyl)-1-(morpholinomethyl)-4H-benzo[f]imidazo[1,2-a] [1,4]diazepine-2-carboxylic acid]",EC50,,> 100 nM
same,Emax,[1],> 100%
"O=C(O[C@@H]1O[C@H](C(=O)O)[C@@H](O)[C@H](O)[C@H]1O)c1cn2c(n1)CN=C(c1ccccc1F)c1cc(Cl)ccc1-2 [Compound 234, (2S,3S,4S,5R,6S)-6-((8-chloro-6-(2-fluorophenyl)-4H-benzo[f]imidazo[1,2-a][1,4]diazepine-2-carbonyl)oxy)-3,4,5-trihydroxytetrahydro-2H-pyran-2-carboxylic acid]",Emax,[1],50 to 100%
same,EC50,"Ltk cells expressing GABAA α3β2γ2, 2.0 μM GABA, whole-cell, holding potential −80 mV, read-out: EC50",< 50 nM
O=C(O)c1cn2c(n1)CN=C(c1ccccc1F)c1cccc(Cl)c1-2 [Compound 224],EC50,,> 100 nM
same,Emax,[1],< 50%
"NC(=O)[C@H](O)c1cn2c(n1)CN=C(c1ccccc1F)c1cc(Cl)ccc1-2 [Compound 231, (2R)-2-[12-chloro-9-(2-fluorophenyl)-2,5,8-triazatricyclo[8.4.0.0^2,6]tetradeca-1 (10),3,5,8,11,13-hexaen-4-yl]-2-hydroxyacetamide]",EC50,,< 50 nM
same,Emax,[1],> 100%
O=C(O)c1cn2c(n1)CN=C(c1ccccc1Cl)c1cc(F)ccc1-2 [Compound 223],EC50,,< 50 nM
same,Emax,[1],< 50%
"COCCOCCOCCOCCOCCOCCOCCOCCNC(=O)c1cn2c(n1)CN=C(c1ccccc1F)c1cc(Cl)ccc1-2 [Compound 229, 8-chloro-6-(2-fluorophenyl)-N-[2-[2-[2-[2-[2-[2-[2-(2-methoxyethoxy)ethoxy]ethoxy]ethoxy]ethoxy]ethoxy]ethoxy]ethyl]-4H-imidazo[1,2-a][1,4]benzodiazepine-2-carboxamide]",EC50,,> 100 nM
same,Emax,[1],> 100%
"O=C(O)c1nc2n(c1CN1CCCCC1)-c1ccc(Cl)cc1C(c1ccccc1F)=NC2 [Compound 246, 8-chloro-6-(2-fluorophenyl)-1-(piperidin-1-ylmethyl)-4H-benzo[f]imidazo[1,2-a][1,4]diazepine-2-carboxylic acid]",EC50,,> 100 nM
same,Emax,[1],50 to 100%
"O=C(O)Cc1cn2c(n1)CN=C(c1ccccc1F)c1cc(Cl)ccc1-2 [Compound 233, 2-(8-chloro-6-(2-fluorophenyl)-4H-benzo[f]imidazo[1,2-a][1,4]diazepin-2-yl) acetic acid]",EC50,,< 50 nM
same,Emax,[1],> 100%
"O=C(O)c1cn2c(n1)CN=C(c1cccc(F)c1)c1cc(Cl)ccc1-2 [Compound 218, 8-chloro-6-(3-fluorophenyl)-4H-imidazo[1,2-a][1,4]benzodiazepine-2-carboxylic acid]",EC50,,> 100 nM
same,Emax,[1],> 100%
"CC1N=C(c2ccccc2F)c2cc(Cl)ccc2-n2cc(C(=O)O)nc21 (racemic) [Compound 101, 12-Chloro-9-(2-fluorophenyl)-7-methyl-2,5,8-triazatricyclo[8.4.0.0^2,6] tetradeca-1 (10),3,5,8,11,13-hexaene-4-carboxylic acid]",EC50,,< 50 nM
same,Emax,[1],> 100%
"O=C(O)c1nc2n(c1C1CC1)-c1ccc(Cl)cc1C(c1ccccc1F)=NC2 [Compound 212, 8-chloro-1-cyclopropyl-6-(2-fluorophenyl)-4H-imidazo[1,2-a][1,4]benzodiazepine-2-carboxylic acid]",EC50,,> 100 nM
same,Emax,[1],> 100%
"C[N+](C)(C)Cc1cn2c(n1)CN=C(c1ccccc1F)c1cc(Cl)ccc1-2 [Compound 202, {[12-chloro-9-(2-fluorophenyl)-2,5,8-triazatricyclo[8.4.0.0^2,6]tetradeca-1 (10),3,5,8,11,13-hexaen-4-yl]methyl}trimethylazanium chloride]",EC50,,< 50 nM
same,Emax,[1],50 to 100%
"O=C(O)c1nc2n(c1CNC1CCCCC1)-c1ccc(Cl)cc1C(c1ccccc1F)=NC2 [Compound 244, 8-chloro-1-((cyclohexylamino)methyl)-6-(2-fluorophenyl)-4H-benzo[f]imidazo[1,2-a][1,4]diazepine-2-carboxylic acid]",EC50,,> 100 nM
same,Emax,[1],> 100%
"O=C(O)c1cn2c(n1)CN=C(c1ccccc1Cl)c1cc(Cl)ccc1-2 [Compound 220, 8-chloro-6-(2-chlorophenyl)-4H-imidazo[1,2-a][1,4]benzodiazepine-2-carboxylic acid]",EC50,,< 50 nM
same,Emax,[1],> 100%
"O=C(O)c1cn2c(n1)CN=C(c1ccccc1Br)c1cc(Cl)ccc1-2 [Compound 206, 6-(2-bromophenyl)-8-chloro-4H-imidazo[1,2-a][1,4]benzodiazepine-2-carboxylic acid]",EC50,,< 50 nM
same,Emax,[1],50 to 100%
"O=C(O)c1cn2c(n1)CN=C(c1cccc(F)c1F)c1cc(Cl)ccc1-2 [Compound 215, 8-chloro-6-(2,3-difluorophenyl)-4H-imidazo[1,2-a][1,4]benzodiazepine-2-carboxylic acid]",EC50,,< 50 nM
same,Emax,[1],> 100%
"O=C(O)c1cn2c(n1)C[N+]([O-])=C(c1ccccc1F)c1cc(Cl)ccc1-2 [Compound 236, 2-carboxy-8-chloro-6-(2-fluorophenyl)-4H-514-benzo[e]imidazo[2,1-c][1,4]diazepin-5-olate]",EC50,,> 100 nM
same,Emax,[1],50 to 100%
"O=C(O)c1cn2c(n1)CN=C(c1ccc(F)cc1)c1cc(Cl)ccc1-2 [Compound 219, 8-chloro-6-(4-fluorophenyl)-4H-imidazo[1,2-a][1,4]benzodiazepine-2-carboxylic acid]",Emax,[1],50 to 100%
"O=C(O)c1nc2n(c1CN1CCCC1)-c1ccc(Cl)cc1C(c1ccccc1F)=NC2 [Compound 247, 8-chloro-6-(2-fluorophenyl)-1-(pyrrolidin-1-ylmethyl)-4H-benzo[f]imidazo[1,2-a][1,4]diazepine-2-carboxylic acid]",EC50,,> 100 nM
same,Emax,[1],50 to 100%
"Cc1c(C(=O)O)nc2n1-c1ccc(Cl)cc1C(c1ccccc1F)=NC2 [Compound 213, 8-chloro-6-(2-fluorophenyl)-1-methyl-4H-imidazo[1,2-a][1,4]benzodiazepine-2-carboxylic acid]",EC50,,< 50 nM
same,Emax,[1],> 100%
